Results from patent US10087195B2, “Certain protein kinase inhibitors” (Shanghai Fochon Pharmaceutical Co., Ltd., priority 2014, dated 2018).

What was measured:
COLO-205 cells = test: COLO-205 cell proliferation assay (MTS), mechanism-based assay for CDK4/6 inhibition; details: Homo sapiens, compound treatment 48 h, MTS absorbance 490 nm, read-out: COLO205 IC50
Protocol: To investigate whether a compound is able to inhibit the activity of CDK4/6 in cells, a mechanism-based assay using COLO-205 cell was developed. In this assay, inhibition of CDK4/6 was detected by the inhibition of COLO-205 cells proliferation. COLO-205 cells were cultured in culture flasks to 40-80% confluence in RPMI-1640 plus 10% fetal bovine serum. Cells were collected and plated onto 96-well plates at desired cell density (2000 cells/well). Plates were incubated overnight at 37° C., with 5% CO2 to adhere. Compounds were added to the plates, the final compound concentrations were […], 123.5, 41.2, 13.7, 4.6 and 1.5 nM. Place plates at 37° C., with 5% CO2 for 48 h. After removing the medium, 20 μl MTS/100 μl medium mixture solution were added to each well and incubate the plates for exactly 1.5 hours. Stop the reaction by adding 25 μl 10% SDS per well. Measure absorbance at 490 nm and 650 nm (reference wavelength). IC50 was calculated using GraphPad Prism 5.0.

BE(2)-C Cells = test: BE(2)-C cell proliferation assay (MTS); assay type: cell-based; details: Homo sapiens, compound treatment 72 hours
Protocol: BE(2)-C Cells were plated in 96-well plates with 150 μl culture medium at cell density of 5000 cells/well. Compounds dilution: 20 mM stock solution of all compounds in DMSO. On the day of treatment, compounds were fresh diluted from the stock solution to a working solution (4× of final concentrations) in culture medium. 50 μl of compound mixtures were added to duplicate wells along with 150 μl of cells. 24 hours after BE(2)-C cells were plated, testing compounds were added. Cell proliferation was measured by MTS assay following manufacturer's instruction after compound treatment for 72 hours.

IC50 (COLO-205 cells) [nM] | SMILES | IC50 (BE(2)-C Cells) [nM]
1110 | CN(C)C(=O)c1sc2cnc(Nc3ccc(N4CCNCC4)cn3)nc2c1C1CCCC1 [Example 1, 7-Cyclopentyl-N,N-dimethyl-2-(5-(piperazin-1-yl)pyridin-2-ylamino)thieno[3,2-d]pyrimidine-6-carboxamide] | 38.5
339 | CN1CCN(c2ccc(Nc3ncc4sc(C(=O)N(C)C)c(C5CCCC5)c4n3)nc2)CC1 [Example 2, 7-Cyclopentyl-N,N-dimethyl-2-(5-(4-methylpiperazin-1-yl)pyridin-2-ylamino)thieno[3,2-d]pyrimidine-6-carboxamide] | 24.1
517 | CN(C)C(=O)c1cc2cnc(Nc3ccc(N4CCNCC4)cn3)nn2c1C1CCCC1 [Example 5, 7-cyclopentyl-N,N-dimethyl-2-((5-(piperazin-1-yl)pyridin-2-yl)amino)pyrrolo[2,1-f][1,2,4]triazine-6-carboxamide] | 601
711 | CN(C)C(=O)c1oc2cnc(Nc3ccc(N4CCNCC4)cn3)nc2c1C1CCCC1 [Example 7, 7-cyclopentyl-N,N-dimethyl-2-((5-(piperazin-1-yl)pyridin-2-yl)amino)furo[3,2-d]pyrimidine-6-carboxamide] | –
624 | NC(=O)c1sc2cnc(Nc3ccc(N4CCNCC4)cn3)nc2c1C1CCCC1 [Example 73, 7-cyclopentyl-2-((5-(piperazin-1-yl)pyridin-2-yl)amino)thieno[3,2-d]pyrimidine-6-carboxamide] | –
450 | CN(C)C(=O)c1sc2cnc(Nc3ccc4c(n3)CCNC4)nc2c1[C@H]1CC[C@H](C)CC1 [Example 87, N,N-dimethyl-7-((1r,4r)-4-methylcyclohexyl)-2-((5,6,7,8-tetrahydro-1,6-naphthyridin-2-yl)amino)thieno[3,2-d]pyrimidine-6-carboxamide] | –
855 | CN1CCc2nc(Nc3ncc4sc(C(=O)N(C)C)c([C@H]5CC[C@H](C)CC5)c4n3)ccc2C1 [Example 88, N,N-dimethyl-2-((6-methyl-5,6,7,8-tetrahydro-1,6-naphthyridin-2-yl)amino)-7-((1r,4r)-4-methylcyclohexyl)thieno[3,2-d]pyrimidine-6-carboxamide] | –
389 | CC(=O)N1CCc2nc(Nc3ncc4sc(C(=O)N(C)C)c([C@H]5CC[C@H](C)CC5)c4n3)ccc2C1 [Example 89, 2-((6-acetyl-5,6,7,8-tetrahydro-1,6-naphthyridin-2-yl)amino)-N,N-dimethyl-7-((1r,4r)-4-methylcyclohexyl)thieno[3,2-d]pyrimidine-6-carboxamide] | –
270 | CN(C)C(=O)c1sc2cnc(Nc3ccc4c(n3)CCN(C(=O)CO)C4)nc2c1[C@H]1CC[C@H](C)CC1 [Example 90, 2-((6-(2-hydroxyacetyl)-5,6,7,8-tetrahydro-1,6-naphthyridin-2-yl)amino)-N,N-dimethyl-7-((1r,4r)-4-methylcyclohexyl)thieno[3,2-d]pyrimidine-6-carboxamide] | –
223 | CN(C)C(=O)c1sc2cnc(Nc3ccc(N4CCNCC4)nn3)nc2c1[C@H]1CC[C@H](C)CC1 [Example 91, N,N-dimethyl-7-((1r,4r)-4-methylcyclohexyl)-2-((6-(piperazin-1-yl)pyridazin-3-yl)amino)thieno[3,2-d]pyrimidine-6-carboxamide] | –
